Source: patent US10954549B2, “Detection and classification of an anticoagulant using a clotting assay” (Haemonetics Corporation, priority 2014, dated 2021)

Columns and labels:
citrated whole blood [1] = test: TEG Kaolin test of blood spiked with anticoagulant; format: biochemical, human
Source text: (§1) The TEG clotting assay was used to determine if low, normal, and high doses of dabigatran, rivaroxaban, and apixaban could be detected in blood spiked with these compounds. Three oral anticoagulants (OAC), namely dabigatran, rivaroxaban, and apixaban, were spiked into blood obtained from 14 healthy volunteer human donors. For each OAC tested, citrated blood from three donors was spiked with three different concentrations of the active drug (i.e., the compound). The spiked blood samples and control samples spiked with diluent were tested with the TEG® 5000 Thrombelastograph® Hemostasis Analyzer (Haemonetics Corporation, Braintree, Mass., USA) using the Kaolin and RapidTEG® reagents (Haemonetics). Each sample was run in triplicate. All samples were tested with and without ecarin (purchased from Enzyme Research Laboratories, South Bend, IN). This study was IRB approved and all donors were over 18 and signed informed consent forms.
Dabigatran stock was prepared from the active dabigatran moiety (Alsachim, France) by dissolution in 0.1M HCl and further dilution in 1:1 DMSO:H20. […] Tubes of citrated blood were spiked with this dabigatran stock to create final concentrations of 500, 200, and 50 ng/mL of citrated whole blood.
Rivaroxaban stock was prepared by agitation of a 20 mg Xarelto tablet (Jannsen, Titusville, N.J.) in a 1:1 DMSO: H20 solution, which was diluted to a final concentration of 20 ng/uL rivaroxaban in 1:1 DMSO:H20. Tubes of citrated blood were spiked with this rivaroxaban stock to create final concentrations of 500, 89, and 22 ng/mL in citrated whole blood. […] Apixaban stock was prepared in a similar manner from a 2.5 mg Eliquis tablet (Bristol-Myers Squibb, New York, N.Y.), with final concentrations of 1000, 500, and 250 ng/mL in whole blood. Apixaban is approved for prevention of VTE in elective hip or knee replacement surgery (2.5 mg BID) and for prevention of stroke and systemic embolism in patients with non-valvular AF (5 mg BID) (see Bristol-Myers SP, EEIG. apixaban summary of product characteristics). […] Control samples, prepared for each tested drug, included a solvent control containing only citrated blood and the diluent used to dilute the drug stock, and an unadulterated citrate blood tube.
Testing was performed on TEG-5000 analyzers (Haemonetics Corp., Braintree, Mass., USA) using Kaolin vials, 0.2M CaCl2, RapidTEG (rTEG) vials, diluent water, and disposable clear cups and pins provided by the manufacturer (Haemonetics, Braintree, Mass.), and ecarin (Enzyme Research Laboratories, South Bend, Ind.). All testing was performed in triplicate at each dose, and allowed to continue until the MA (maximum amplitude) parameter defined. The various components of the TEG tracing are depicted in FIG. 3A. The Kaolin test generates an R parameter, which is measured in minutes, and is the time elapsed from the initiation of the test until the point where the onset of clotting provides enough resistance to produce a 2 mm amplitude reading on the TEG tracing. This parameter represents the initiation phase of coagulation related to the function of enzymatic clotting factors. The R parameter has a normal range of 5 to 10 min for kaolin. A prolonged R time indicates slower clot formation. K is a measurement of the time interval from the split point to the point where fibrin cross-linking provides enough clot resistance to produce a 20 mm amplitude reading. The α angle is the angle formed by the slope of a tangent line traced from the R to the K time and a central line measured in degrees. K time and the α angle denote the rate at which the clot strengthens, and is representative of thrombin's cleaving of the available fibrinogen into fibrin. The MA indicates the point at which clot strength reaches its maximum amplitude, measured in millimeters on the TEG tracing, and reflects the end result of maximal platelet-fibrin interaction via the GPIIb-IIIa receptors (see Khurana S et al., J Lab Clin Med. 130:401-411, 1997). […]

citrated whole blood [2] = test: RapidTEG (rTEG) test of blood spiked with anticoagulant; format: biochemical, human
Source text: as §1
The RapidTEG (rTEG) test incorporated both tissue factor and kaolin to generate the conventional kaolin parameters as well as the TEG-ACT parameter, which is measured in seconds. The TEG-ACT is equivalent to the Activated Clotting Time (see Chavez J. J. et al., Anesth. Analg. 99:1290-1294, 2004) and has a normal range of 86 to 118 seconds. A prolonged TEG-ACT time indicates slower clot formation. In addition, velocity curves derived from the above mentioned kaolin and rTEG tests were plotted using TEG software. These curves represent the speed of clot propagation (MRTG, Maximum Rate of Thrombus Generation; and TMRTG, Time to Maximum Rate of Thrombus Generation) (see FIG. 3B).
For the RapidTEG (rTEG) test, the reagent was reconstituted with 20 μL diluent water, and allowed to stand for 5 minutes per manufacturer instructions. Ten μL of this reconstituted reagent was added to the TEG cup with 20 μl 0.2M CaCl2 for recalcification.
(§2) 340 μL of the citrated blood sample was added to the cup with these two reagents, and the contents of the cup were mixed 3 times by drawing the contents of the cup up into the pipette and redispensing it into the cup. The test was started immediately after mixing and allowed to run until the MA parameter had defined. The rTEG with ecarin test was performed as the rTEG test above, using 20 μL of an ecarin/CaCl2 solution (0.16M CaCl2; 19EU/mL ecarin).

citrated whole blood [3] = test: TEG kaolin with ecarin test of spiked blood; format: biochemical, human
Source text: as §1
For the kaolin test, 1 mL of citrated blood sample was mixed with kaolin and 340 microliters (μL) of this blood was added to a TEG cup containing 20 μL of 0.2M CaCl2 for recalcification. The kaolin with ecarin test was performed in a similar fashion, using 20 μL of an ecarin/CaCl2 solution (0.16 M CaCl2; 19 EU/mL ecarin).
Ecarin is derived from the venom of the saw-scaled viper, Echis carinatus. Ecarin activates prothrombin (the precursor of thrombin—see FIG. 5). This activation of prothrombin by ecarin produces meizothrombin, a prothrombin-thrombin intermediate which has a low level of procoagulant enzymatic activity.
Healthy human volunteers (who are not being administered any anticoagulant), donated blood. Following donation, the blood collected from the donors (which was added to citrate to prevent clotting) was divided into portions, and portions of the blood were spiked with either nothing, dabigatran, or rivaroxaban. The portions were then assayed using thromboelastography, including assays performed in the presence of ecarin.

[4] = cited from earlier work
citrated whole blood [5] = test: rTEG with ecarin test of spiked blood; format: biochemical, human
Source text: as §1, §2

[6] = tested on: blood from healthy volunteers; test: Thromboelastography R time of spiked blood in the presence of the FXa reagent; format: biochemical, human; conditions: in vitro spiking, increasing concentrations
Description: Blood from healthy volunteers known not to be taking any oral anticoagulant and without any other significant health issues are analyzed using the FXa or the Ecarin reagent in a TEG® hemostasis analyzer. The FXa reagent (i.e., the Factor Xa reagent) is used to detect the presence (or absence) of an anticoagulant in the blood component being tested. In absence of any oral anticoagulant, the FXa reagent will accelerate the clotting process and result in a very short R-time. In presence of direct thrombin inhibitors and/or anti-Factor Xa anticoagulant(s), the process is slowed down and will cause elongation of the R-time. This difference in R-time is utilized to detect the presence of the oral anticoagulant. The R-time generated from multiple donors was used to construct a reference range. Blood was spiked with either direct thrombin inhibitors or anti-Xa(s) at different concentrations and analyzed using the FXa reagent or the Ecarin reagent. The drug concentrations chosen represent the published therapeutic ranges for these two classes of drugs. This assay was repeated in multiple donors to account for possible donor variations.

porcine plasma = test: TEG 6S DTI channel R-time, porcine experimental trauma model; format: in vivo
Description: The TEG®6S system (Haemonetics Corp., Braintree, Mass.) is based on viscoelasticity measurements using resonance frequency and disposable multi-channel microfluidic cartridges. Blood and plasma from healthy volunteers were spiked with dabigatran in the therapeutic range (in increasing concentrations) and tested with an OAC cartridge with an ecarin based, direct thrombin inhibitor (DTI) channel. This channel was also evaluated with porcine plasma from an experimental trauma model (n=6) where dabigatran levels were measured with dilute TT (Hemoclot®). TEG 6s R-time (reaction time) was correlated to the drug levels.

Question: For `COc1ccc(-n2nc(C(N)=O)c3c2C(=O)N(c2ccc(N4CCCCC4=O)cc2)CC3)cc1` [apixaban, Apixaban], which “MA versus control group” value (citrated whole blood [1]; 250 ng/mL, still within normal range) is on record?
Answer: Its value is “significantly different from the control group”.

Question: And the “R time versus non-spiked blood sample” value (citrated whole blood [1]; highest concentration tested)?
Answer: Its value is “significantly higher”.

Question: And the “R, K, α, and MRTG parameters, statistical significance versus control” value (citrated whole blood [1]; three concentrations per drug, Example 1)?
Answer: Its value is “able to detect the presence of all tested concentrations”.

Question: And the “K, α and MRTG parameters versus control or between studied concentrations” value (citrated whole blood [2])?
Answer: Its value is “did not show any statistical difference”.

Question: What about the “TMRTG parameter sensitivity to presence of drug” value (citrated whole blood [2]) of the same molecule?
Answer: The value was “not”.

Question: And the “MA values versus control” value (citrated whole blood [2]; all studied concentrations)?
Answer: The value was “did not change”.

Question: What about the “TEG ACT parameter versus control group” value (citrated whole blood [2]; all tested concentrations (except rivaroxaban 22 ng/mL)) of the same molecule?
Answer: The value was “significantly different”.

Question: What about the “ACT time versus non-spiked blood sample” value (citrated whole blood [2]; medium and higher concentrations) of the same molecule?
Answer: Its value is “significantly higher”.

Question: What about the “R time in the presence versus absence of ecarin” value (citrated whole blood [3]; FIGS. 8A-8C) of the same molecule?
Answer: The value was “equivalent and significant shortening of R time”.

Question: What about the “MA values with ecarin relative to samples run without ecarin” value (citrated whole blood [3]; kaolin test) of the same molecule?
Answer: Its value is “statistically different”.

Question: What about the “R, K and TMRTG values on addition of ecarin to the kaolin test” value (citrated whole blood [3]; treated and control groups) of the same molecule?
Answer: Its value is “significant decrease”.

Question: And the “α and MRTG values on addition of ecarin to the kaolin test” value (citrated whole blood [3]; treated and control groups)?
Answer: Its value is “significant increase”.

Question: And the half-lives compared ([4]; in vivo)?
Answer: The half-lives compared was “shorter half-lives than dabigatran”.

Question: And the Cmax ([4]; oral dose of 20 mg)?
Answer: Its Cmax is 460 ng/mL.

Question: What about the increased half-life ([4]; patients with severe renal impairment compared to healthy volunteers) of the same molecule?
Answer: Its increased half-life is “up to 44%”.

Question: What about the “TEG-ACT times on addition of ecarin to the RapidTEG test” value (citrated whole blood [5]) of the same molecule?
Answer: The value was “significantly decreases”.

Question: What about the “RapidTEG α angle when ecarin was added” value (citrated whole blood [5]; any of the studied concentrations) of the same molecule?
Answer: Its value is “did not change”.

Question: And the “RapidTEG K values when ecarin was added” value (citrated whole blood [5]; highest and lowest concentrations)?
Answer: Its value is “significantly decreased”.

Question: What about the “R-time compared to the reference range, FXa reagent” value [6] of the same molecule?
Answer: The value was “dose dependent elongation of the R-time”.

B1: idarucizumab: reversal agent that reverses the anticoagulant effect of dabigatran (Boehringer Ingelheim) (antibody, chains of the INN, looked up, V domains shown)
VH: QVQLQESGPGLVKPSETLSLTCTVSGFSLTSYIVDWIRQPPGKGLEWIGVIWAGGSTGYNSALRSRVSITKDTSKNQFSLKLSSVTAADTAVYYCASAAYYSYYNYDGFAYWGQGTLVTVSS
VL: DVVMTQSPLSLPVTLGQPASISCKSSQSLLYTDGKTYLYWFLQRPGQSPRRLIYLVSKLDSGVPDRFSGSGSGTDFTLKISRVEAEDVGVYYCLQSTHFPHTFGGGTKVEIK
Question: Which “R-time after administration of the reversal agent” value (porcine plasma; after dabigatran, trauma model, baseline 3.4±0.6 min) does the source give for B1 here?
Answer: The value was 3.6 ± 0.6 min.

Question: And the “R time upon administration of the reversal agent” value (porcine plasma; five separate swine plasma samples, FIG. 16)?
Answer: Its value is “returned to baseline”.
